{
  "source": "patent US20220211657A1",
  "about": "“METHODS OF TREATING GASTROINTESTINAL CANCERS AND TUMORS THEREOF USING COMBINATION THERAPY” (GEORGETOWN UNIVERSITY, priority 2019, published 2022)",
  "key": {"[1]": {"tested_on": "metastatic pancreatic cancer", "settings": "first-line standard of care; cited from earlier work"}, "BRCA1/2-mutated tumors": {"tested_on": "BRCA1/2-mutated tumors", "settings": "out of 24 patients with BRCA1/2-mutated tumors; cited from earlier work"}, "[2]": {"tested_on": "BRCA1/2-mutated pancreatic cancer", "settings": "cited from earlier work"}, "[3]": {"experiment": "Phase I dose escalation of veliparib plus FOLFOX (dose limiting toxicities, recommended Phase II dose)", "format": "in vivo", "procedure": "The study was designed as a single center, Phase I/II, open label study of veliparib plus FOLFOX. At the time of study initiation, the dose and schedule for modified FOLFOX (de Gramont et al., “Leucovorin and Fluorouracil With or Without Oxaliplatin as First-Line Treatment in Advanced Colorectal Cancer,” J. Clin. Oncol. 18:2938-2947 (2000), which is hereby incorporated by reference in its entirety) was used (5-fluorouracil bolus 400 mg/m^2 Day 1; leucovorin 400 mg/m^2 Day 1; oxaliplatin 85 mg/m^2 Day 1; and 5-fluorouracil 2400 mg/m^2 continuous infusion over 46 hours, Days 1-3). Each cycle was 14 days. […] With regards to the veliparib, for the Phase I portion, the dose of veliparib was escalated in a standard 3+3 design from the lowest dose of 40 mg twice a day (BID) days 1-7 of each 14-day cycle. Dose levels were 40 mg, 60 mg, 80 mg, 100 mg, 150 mg, 200 mg, and 250 mg. For the Phase II portion, the recommended Phase II dose (RP2D) was 200 mg of veliparib, though the protocol did allow for stepwise de-escalation to 150 mg and then to 100 mg for toxicity after the first cycle. […] Tumor response was assessed radiographically every 8-12 weeks using Response Evaluation Criteria in Solid Tumors criteria version 1.1 (Eisenhauer et al., “New Response Evaluation Criteria in Solid Tumours: Revised RECIST Guideline (Version 1.1),” Eur. J. Cancer 45:228-247 (2009), which is hereby incorporated by reference in its entirety). […] The primary objective of the Phase I portion was to determine the recommended Phase II dose, with the primary endpoint being adverse events, as measured by the National Cancer Institute Common Terminology Criteria for Adverse Events, Version 4.03, which is hereby incorporated by reference in its entirety. […]\nThe primary objective of the Phase I portion of the trial was to determine the recommended Phase II dose, by assessing the safety and tolerability as determined by adverse events, defined by the National Cancer Institute Common Terminology Criteria for Adverse Events, Version 4.03, which is hereby incorporated by reference in its entirety. […]"}, "[4]": {"experiment": "Pharmacokinetic assessment of veliparib (Day 1, 3, 7 samples)", "format": "in vivo, human", "settings": "14 subjects in 5 dosing cohorts", "procedure": "For the Phase I portion of the study, plasma samples were obtained from patients on Day 1 (pre-dose), Day 3, and Day 7 for pharmacokinetic (PK) assessment of veliparib. Results were compared to historical controls to identify any effect on veliparib pharmacokinetics by oxaliplatin or 5-fluorouracil. […] Next generation sequencing (NGS) of cancer-related genes was performed on tumor samples. Results from patients were captured, if ordered by the treating physician prior to enrollment, and sequencing was performed commercially by Foundation Medicine (FM), Caris Life Sciences, or through commercial germline testing labs such as Myriad or Invitae. […] Patients were defined as harboring HR-DDR mutations if a known pathogenic mutation in one of the HR-DDR genes (including but not limited to: ARID1A, ATM, ATRX, MRE11A, NBN, PTEN, RAD50/51/51B, BARD1, BLM, BRCA1, BRCA2, BRIP1, FANCA/C/D2/E/F/G/L, PALB2, WRN, CHEK2, CHEK1, BAP1, FAM175A, SLX4, MLL2, or XRCC) was identified in a blood sample (germline) or tumor sample (somatic)."}},
  "data": [
    {"smiles": "Nc1ccn([C@@H]2O[C@H](CO)[C@@H](O)C2(F)F)c(=O)n1", "note": "[gemcitabine]", "values": [
      {"measurement": "response rate", "setting": "[1]", "value": 7, "unit": "%"}
    ]},
    {"smiles": "O=C(c1cc(Cc2n[nH]c(=O)c3ccccc23)ccc1F)N1CCN(C(=O)C2CC2)CC1", "note": "[olaparib]", "values": [
      {"measurement": "patients who responded", "setting": "BRCA1/2-mutated tumors", "value": 4, "unit": "patients"}
    ]},
    {"smiles": "CNCc1ccc(-c2[nH]c3cc(F)cc4c3c2CCNC4=O)cc1", "note": "[rucaparib]", "values": [
      {"measurement": "patients who did not respond to platinum but did respond", "setting": "[2]; in vivo", "value": "two"},
      {"measurement": "responses", "setting": "[2]; out of 19 patients with BRCA1/2-mutated pancreatic cancer", "value": 4}
    ]},
    {"smiles": "C[C@]1(c2nc3c(C(N)=O)cccc3[nH]2)CCCN1", "note": "[veliparib]", "values": [
      {"measurement": "protocol-defined dose limiting toxicity", "setting": "[3]; human, in vivo", "value": "treatment delay of >3 weeks"},
      {"measurement": "dose limiting toxicities", "setting": "[3]; in vivo", "value": "one"},
      {"measurement": "recommended Phase II dose", "setting": "[3]; veliparib BID days 1-7 of each 14-day cycle plus FOLFOX", "value": 200, "unit": "mg"},
      {"measurement": "impact of co-administration of FOLFOX on veliparib pharmacokinetics", "setting": "[4]", "value": "no apparent impact"}
    ]}
  ]
}
